Assay results taken from paper PMC9508125, “The evolutionary advantage of an aromatic clamp in plant family 3 glycoside exo-hydrolases” (Nature Communications, 2022).
Where a chain is given by its changes, count along the chain named.

Tests used:
Type in all cases: biochemical
[1] = target: T1, WT HvExoI (Hordeum vulgare, UniProt Q9XEI3); assay: Steady-state apparent kinetic constants with substrates; conditions: substance is the substrate
Procedure: Dependency of activities of WT and mutant HvExoI on pH (McIlvaine buffers in the pH range of 3.5–8.5 at 30 °C) and temperature (100 mM sodium acetate buffer, pH 5.25, temperature range 0–80 °C, 15 min incubations) were determined using 0.2% (w/v) 4NP-Glc[21],[59]. Relative rates of hydrolysis of β-linked poly-, oligosaccharides, and aryl-glucosides were determined using near-homogenous HvExoI at 50 pmoles. […] Kinetic parameters were calculated from the analyses of Michaelis-Menten plots with Grafit 7.0.3[62] and processed by a proportional weighted fit, using nonlinear regression. The relative rates of hydrolysis, kinetic, and inhibition data were rounded to one or two decimal points (Supplementary Tables 2–4).

[2] = target: T2, HvExoI W286F mutant (Hordeum vulgare, UniProt Q9XEI3, W311F); assay: Relative rates of hydrolysis of poly-, oligosaccharides and aryl-glycosides; conditions: substance is the substrate, nd = activity not detected
T2 sequence (Q9XEI3 26-630 W311F): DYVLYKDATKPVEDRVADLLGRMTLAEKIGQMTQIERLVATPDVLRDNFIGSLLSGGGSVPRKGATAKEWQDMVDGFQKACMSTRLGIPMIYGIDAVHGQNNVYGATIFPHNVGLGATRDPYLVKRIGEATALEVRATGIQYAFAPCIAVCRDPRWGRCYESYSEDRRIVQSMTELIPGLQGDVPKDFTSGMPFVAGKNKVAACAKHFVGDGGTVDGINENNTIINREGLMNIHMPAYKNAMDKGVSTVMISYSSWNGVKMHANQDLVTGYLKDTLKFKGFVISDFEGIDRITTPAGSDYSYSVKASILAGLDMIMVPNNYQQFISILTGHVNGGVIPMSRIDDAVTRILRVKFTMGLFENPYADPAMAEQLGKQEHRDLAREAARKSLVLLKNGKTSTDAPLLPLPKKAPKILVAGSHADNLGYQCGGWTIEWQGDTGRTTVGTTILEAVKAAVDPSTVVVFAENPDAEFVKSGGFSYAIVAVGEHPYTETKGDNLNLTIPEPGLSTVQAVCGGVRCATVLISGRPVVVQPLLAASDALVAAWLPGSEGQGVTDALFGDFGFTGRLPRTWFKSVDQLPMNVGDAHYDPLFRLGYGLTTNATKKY
Outline: (§1)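 First, pH dependence was tested in McIlvaine buffers at pH 3.5–8.5 and 30 °C. Next, temperature dependence was tested in 100 mM sodium acetate, pH 5.25, at 0–80 °C for 15 min, with both scans on 0.2% (w/v) 4NP-Glc. Relative substrate rates then used 50 pmoles of enzyme.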

[3] = target: T3, HvExoI W434A mutant (Hordeum vulgare, UniProt Q9XEI3, W459A); assay: as above; conditions: substance is the substrate, nd = activity not detected
T3 sequence (Q9XEI3 26-630 W459A): T2 sequence (Q9XEI3 26-630 W311F) with F286W, W434A
Outline: as §1

[4] = target: T4, HvExoI W286F/W434A mutant (Hordeum vulgare, UniProt Q9XEI3, W311F/W459A); assay: as above; conditions: substance is the substrate, nd = activity not detected
T4 sequence (Q9XEI3 26-630 W311F/W459A): T2 sequence (Q9XEI3 26-630 W311F) with W434A
Outline: as §1

[5] = target: T5, HvExoI W434F mutant (Hordeum vulgare, UniProt Q9XEI3, W459F); assay: as above; conditions: substance is the substrate, nd = activity not detected
T5 sequence (Q9XEI3 26-630 W459F): T2 sequence (Q9XEI3 26-630 W311F) with F286W, W434F
Outline: as §1

[6] = target: T1, WT HvExoI; assay: as above; conditions: substance is the substrate, HvExoI at 50 pmoles, nd = activity not detected
Outline: as §1

T1 sequence (Q9XEI3 entry or part of it): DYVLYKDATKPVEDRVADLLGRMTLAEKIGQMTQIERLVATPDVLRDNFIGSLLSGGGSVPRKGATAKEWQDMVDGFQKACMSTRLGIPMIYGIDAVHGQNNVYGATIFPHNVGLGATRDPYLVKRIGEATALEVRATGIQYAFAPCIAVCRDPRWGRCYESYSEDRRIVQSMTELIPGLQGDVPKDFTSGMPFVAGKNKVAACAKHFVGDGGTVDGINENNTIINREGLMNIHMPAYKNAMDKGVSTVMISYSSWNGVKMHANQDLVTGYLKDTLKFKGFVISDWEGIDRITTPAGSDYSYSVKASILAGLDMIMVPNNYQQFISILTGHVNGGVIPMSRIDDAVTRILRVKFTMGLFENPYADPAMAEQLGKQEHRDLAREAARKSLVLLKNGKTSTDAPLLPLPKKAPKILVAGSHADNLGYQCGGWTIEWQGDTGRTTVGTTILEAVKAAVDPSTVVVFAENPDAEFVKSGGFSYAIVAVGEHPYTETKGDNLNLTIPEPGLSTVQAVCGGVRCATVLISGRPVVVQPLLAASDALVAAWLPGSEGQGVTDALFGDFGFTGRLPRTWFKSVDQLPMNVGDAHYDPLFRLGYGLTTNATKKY

Compound | Km [1] | kcat [1] | Activity (relative rate of hydrolysis) [2] | Activity (relative rate of hydrolysis) [3] | Activity (relative rate of hydrolysis) [4] | Activity (relative rate of hydrolysis) [5] | Activity (relative rate of hydrolysis) [6]
laminarin | 200 ± 20 µM | 42.1 ± 7.6 s⁻¹ | 1.1 ± 0.1 μmole/min per mg protein | no activity | 0.1 ± 0.003 μmole/min per mg protein | 7.8 ± 0.4 μmole/min per mg protein | 54.4 ± 0.5 μmole/min per mg protein
OC[C@H]1O[C@@H](O[C@@H]2[C@@H](O)[C@H](O[C@H]3[C@H](O)[C@@H](CO)OC(O)[C@@H]3O)O[C@H](CO)[C@H]2O)[C@H](O)[C@@H](O)[C@@H]1O (stereo partly shown) [Laminaritriose] | – | – | 1.3 ± 0.01 μmole/min per mg protein | 0.9 ± 0.1 μmole/min per mg protein | 0.1 ± 0.002 μmole/min per mg protein | 18.4 ± 1.4 μmole/min per mg protein | 12.4 ± 0.3 μmole/min per mg protein
OC[C@H]1O[C@@H](O[C@@H]2[C@@H](O)[C@H](O[C@@H]3[C@@H](O)[C@H](O[C@H]4[C@H](O)[C@@H](CO)OC(O)[C@@H]4O)O[C@H](CO)[C@H]3O)O[C@H](CO)[C@H]2O)[C@H](O)[C@@H](O)[C@@H]1O (stereo partly shown) [Laminaritetraose] | – | – | 1.1 ± 0.1 μmole/min per mg protein | 1.1 ± 0.1 μmole/min per mg protein | 0.2 ± 0.01 μmole/min per mg protein | 15.0 ± 1.5 μmole/min per mg protein | 12.3 ± 0.5 μmole/min per mg protein
OC[C@H]1O[C@@H](O[C@@H]2[C@@H](O)[C@H](O[C@@H]3[C@@H](O)[C@H](O[C@@H]4[C@@H](O)[C@H](O[C@@H]5[C@@H](O)[C@H](O)O[C@H](CO)[C@H]5O)O[C@H](CO)[C@H]4O)O[C@H](CO)[C@H]3O)O[C@H](CO)[C@H]2O)[C@H](O)[C@@H](O)[C@@H]1O [Laminaripentaose] | – | – | 1.0 ± 0.01 μmole/min per mg protein | 1.0 ± 0.1 μmole/min per mg protein | 0.2 ± 0.02 μmole/min per mg protein | 14.6 ± 0.4 μmole/min per mg protein | 11.7 ± 0.5 μmole/min per mg protein
O=[N+]([O-])c1ccc(O[C@@H]2O[C@H](CO)[C@@H](O)[C@H](O)[C@H]2O)cc1 [4NP-Glc, 4-nitrophenyl β-D-glucopyranoside] | – | – | 0.9 ± 0.01 μmole/min per mg protein | 6.1 ± 0.1 μmole/min per mg protein | 1.8 ± 0.03 μmole/min per mg protein | 5.0 ± 0.01 μmole/min per mg protein | 12.4 ± 0.8 μmole/min per mg protein
OC[C@H]1O[C@@H](O[C@H]2[C@H](O)[C@@H](CO)OC(O)[C@@H]2O)[C@H](O)[C@@H](O)[C@@H]1O (stereo partly shown) [Laminaribiose] | 1300 ± 120 µM | 54.2 ± 6.9 s⁻¹ | 0.6 ± 0.04 μmole/min per mg protein | 0.5 ± 0.03 μmole/min per mg protein | 0.1 ± 0.001 μmole/min per mg protein | 14.9 ± 1.7 μmole/min per mg protein | –
OC[C@H]1O[C@@H](O[C@@H]2[C@@H](O)[C@H](O[C@@H]3[C@@H](O)[C@H](O[C@@H]4[C@@H](O)[C@H](O[C@@H]5[C@@H](O)[C@H](O[C@@H]6[C@@H](O)[C@H](O[C@@H]7[C@@H](O)[C@H](O)O[C@H](CO)[C@H]7O)O[C@H](CO)[C@H]6O)O[C@H](CO)[C@H]5O)O[C@H](CO)[C@H]4O)O[C@H](CO)[C@H]3O)O[C@H](CO)[C@H]2O)[C@H](O)[C@@H](O)[C@@H]1O [Laminariheptaose] | – | – | 1.2 ± 0.1 μmole/min per mg protein | 1.0 ± 0.1 μmole/min per mg protein | 0.1 ± 0.004 μmole/min per mg protein | 13.5 ± 0.4 μmole/min per mg protein | 11.0 ± 0.8 μmole/min per mg protein
OC[C@H]1O[C@@H](O[C@@H]2[C@@H](O)[C@H](O[C@@H]3[C@@H](O)[C@H](O[C@@H]4[C@@H](O)[C@H](O[C@@H]5[C@@H](O)[C@H](O[C@H]6[C@H](O)[C@@H](CO)OC(O)[C@@H]6O)O[C@H](CO)[C@H]5O)O[C@H](CO)[C@H]4O)O[C@H](CO)[C@H]3O)O[C@H](CO)[C@H]2O)[C@H](O)[C@@H](O)[C@@H]1O (stereo partly shown) [Laminarihexaose] | – | – | 1.1 ± 0.03 μmole/min per mg protein | 1.0 ± 0.02 μmole/min per mg protein | 0.1 ± 0.004 μmole/min per mg protein | 15.8 ± 1.0 μmole/min per mg protein | 12.2 ± 0.1 μmole/min per mg protein
